Reference: patent publication US11168088B2 (SHANGHAI HAIYAN PHARMACEUTICAL TECHNOLOGY CO., LTD., priority 2016, dated 2021)

Experiments:
Type in all cases: biochemical
[1] = biological target: CDK4 (Homo sapiens (Human), UniProt P11802); experiment: In vitro kinase test (LANCE Ultra), CDK4
Excerpt: (§1) Recombinant CDK1/CCNB1 and CDK9/CCNT were purchased from BPS; CDK2/CCNA1, CDK4/CCND1 and CDK6/CCND1 were purchased from Invitrogen; CDK4/CycD3 and CDK6/CycD3 were purchased from Carna. Adenosine triphosphate (ATP) was purchased from Life tech. Substrate Ulight-4EBP1 and the corresponding detection antibody were purchased from Perkinelmer. The detection system was Perkinelmer's LANCE Ultra system.
(§2) In the kinase test, a compound to be tested was 1:3 diluted for 8 gradient points, added into a reaction plate, and then added an appropriate amount of recoinbinase. A buffer [50 mM HEPES […], 10 mM MgCl2, 3 mM MnCl2, 1 mM EGTA, 0.01% Tween-20, 1 mM TCEP] containing ATP/Ulight-4EBP1 premix with predetermined concentration was subsequently added, and the kinase reaction was started at room temperature. A test solution pre-mixed with 10 mM EDTA and detection antibody was added after a suitable reaction time, and then the fluorescence value was read on Tecan infinite pro after reacting for 1 hour at room temperature. The IC50 was calculated using a four-factor model fitting in a XLfit software.

[2] = biological target: CDK6 (Homo sapiens (Human), UniProt Q00534); experiment: In vitro kinase test (LANCE Ultra), CDK6
Sequence of CDK6 (Q00534 whole entry, looked up): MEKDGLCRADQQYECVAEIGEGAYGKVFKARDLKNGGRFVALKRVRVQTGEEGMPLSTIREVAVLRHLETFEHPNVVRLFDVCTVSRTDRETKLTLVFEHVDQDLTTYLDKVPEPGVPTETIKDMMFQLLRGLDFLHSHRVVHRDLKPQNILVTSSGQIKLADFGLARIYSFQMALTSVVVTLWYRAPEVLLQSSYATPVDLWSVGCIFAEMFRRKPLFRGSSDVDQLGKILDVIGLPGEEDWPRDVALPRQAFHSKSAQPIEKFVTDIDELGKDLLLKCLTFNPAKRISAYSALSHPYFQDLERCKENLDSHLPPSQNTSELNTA
Sequence of CDK6 (P24385 whole entry partner, looked up): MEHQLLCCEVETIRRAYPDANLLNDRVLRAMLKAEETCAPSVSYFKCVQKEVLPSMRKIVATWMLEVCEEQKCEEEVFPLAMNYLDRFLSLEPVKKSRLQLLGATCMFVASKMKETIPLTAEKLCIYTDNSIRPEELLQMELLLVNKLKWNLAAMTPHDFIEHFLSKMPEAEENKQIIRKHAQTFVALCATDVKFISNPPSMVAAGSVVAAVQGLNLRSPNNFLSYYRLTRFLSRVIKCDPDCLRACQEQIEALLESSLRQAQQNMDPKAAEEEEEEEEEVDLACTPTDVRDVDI
Excerpt: as §1, §2

[3] = biological target: CDK1 (Homo sapiens (Human), UniProt P06493); experiment: In vitro kinase test (LANCE Ultra), CDK1
Sequence of CDK1 (P06493 whole entry): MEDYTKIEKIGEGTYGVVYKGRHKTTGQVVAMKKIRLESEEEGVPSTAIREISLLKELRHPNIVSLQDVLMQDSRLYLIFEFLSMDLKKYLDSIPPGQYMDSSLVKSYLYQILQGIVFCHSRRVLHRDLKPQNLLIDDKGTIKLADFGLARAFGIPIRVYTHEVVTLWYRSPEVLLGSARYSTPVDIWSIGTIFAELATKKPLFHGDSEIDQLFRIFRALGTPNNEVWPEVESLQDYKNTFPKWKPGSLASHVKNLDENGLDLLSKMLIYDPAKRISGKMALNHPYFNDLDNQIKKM
Sequence of CDK1 (P14635 whole entry partner): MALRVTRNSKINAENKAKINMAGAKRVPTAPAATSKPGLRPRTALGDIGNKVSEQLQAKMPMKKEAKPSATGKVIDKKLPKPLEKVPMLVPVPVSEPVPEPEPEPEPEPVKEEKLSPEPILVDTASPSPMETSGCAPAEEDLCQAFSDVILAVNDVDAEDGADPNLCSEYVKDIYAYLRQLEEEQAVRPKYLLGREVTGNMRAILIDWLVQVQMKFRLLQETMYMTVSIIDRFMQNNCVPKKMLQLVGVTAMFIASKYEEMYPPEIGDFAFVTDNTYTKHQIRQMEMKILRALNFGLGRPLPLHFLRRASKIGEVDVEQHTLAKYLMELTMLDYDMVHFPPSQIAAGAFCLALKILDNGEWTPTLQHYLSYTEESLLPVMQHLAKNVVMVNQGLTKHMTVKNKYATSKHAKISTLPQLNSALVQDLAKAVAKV
Excerpt: as §1, §2

[4] = biological target: CDK2 (Homo sapiens (Human), UniProt P24941); experiment: In vitro kinase test (LANCE Ultra), CDK2
Excerpt: as §1, §2

Sequence of CDK4 (P11802 whole entry, looked up): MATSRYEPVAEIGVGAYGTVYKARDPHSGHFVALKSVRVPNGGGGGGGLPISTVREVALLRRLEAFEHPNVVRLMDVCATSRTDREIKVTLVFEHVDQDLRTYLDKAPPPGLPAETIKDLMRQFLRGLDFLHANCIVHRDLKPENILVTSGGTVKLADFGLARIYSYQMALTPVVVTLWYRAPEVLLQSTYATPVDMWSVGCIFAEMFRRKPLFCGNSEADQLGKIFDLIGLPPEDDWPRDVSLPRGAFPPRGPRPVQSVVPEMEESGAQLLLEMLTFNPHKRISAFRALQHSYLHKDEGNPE
Sequence of CDK4 (P24385 whole entry partner, looked up): as the sequence (P24385 whole entry partner, looked up) above

In the case of `Cc1c2c(nn1C)CCc1cnc(Nc3ccc(N4CCN(C)CC4)cc3)nc1-2` [Compound D1, reference compound], the “inhibitory activity against CDK4 (in words)” value [1] is reported as “strong inhibitory activity”, the “inhibitory activity against CDK6 (in words)” value [2] is reported as “strong inhibitory activity” and the “inhibitory activity against CDK1 (in words)” value [3] is reported as “strong inhibitory activity”. The “inhibitory activity against CDK2 (in words)” value [4] was “strong inhibitory activity”.

Compound `CCN1CCN(Cc2ccc(Nc3ncc4c(n3)-c3c(nn(CC)c3C(C)C)CC4)nc2)CC1` [Compound P-2] has an IC50 [1] of 4 nM, an IC50 [2] of 38 nM and an IC50 [3] of 427 nM.

In the case of `CCc1nc2c(n1C(C)C)-c1nc(Nc3ccc(CN4CCN(CC)CC4)cn3)ncc1CC2` [Compound P-3], the IC50 [1] is reported as 6 nM, the IC50 [2] is reported as 59 nM and the IC50 [3] is reported as 912 nM. For the same compound, the IC50 [4] was 1150 nM.

`CCn1nc2c(c1C(C)C)-c1nc(Nc3ccc(N4CCNCC4)cn3)ncc1CC2` [Compound P-4, 8-ethyl-9-isopropyl-N-(5-(piperazin-1-yl)pyridin-2-yl)-6,8-dihydro-5H-pyrazolo[3,4-H]quinazolin-2-amine] gave an IC50 [1] of 5 nM, an IC50 [2] of 33 nM and an IC50 [3] of 7960 nM. For the same compound, the IC50 [4] was 4760 nM.

`CCc1nc2c(n1C(C)C)-c1nc(Nc3ccc(CN4CCN(CC)CC4)cn3)ncc1C2` [Compound P-5] showed an IC50 [1] of 22 nM, an IC50 [2] of 256 nM and an IC50 [3] of 5310 nM.

`CCN1CCN(c2ccc(Nc3ncc4c(n3)-c3c(nn(C)c3C(C)C)C4)nc2)CC1` [Compound P-7] showed an IC50 [1] of 6 nM, an IC50 [2] of 42 nM and an IC50 [3] of 8530 nM. For the same compound, the IC50 [4] was 9850 nM.

With `CC(C)c1c2c(nn1C)Cc1cnc(Nc3ccc(N4CCNCC4)cn3)nc1-2` [Compound P-8] the IC50 [1] was 10 nM, the IC50 [2] was 161 nM and the IC50 [3] was > 10000 nM. It also gave an IC50 [4] of 8250 nM.

In the case of `c1cc(Nc2ncc3c(n2)-c2c(cnn2C2CCCC2)CC3)ncc1N1CCNCC1` [Compound P-9, 1-cyclopentyl-N-(5-(piperazin-1-yl)pyridin-2-yl)-4,5-dihydro-1H-pyrazolo[4,3H]quinazolin-8-amine], the IC50 [1] is reported as 8 nM, the IC50 [2] is reported as 40 nM and the IC50 [3] is reported as 5170 nM. The IC50 [4] was 1440 nM.

With `CCN1CCN(Cc2ccc(Nc3ncc4c(n3)-c3c(cnn3C(C)C)CC4)nc2)CC1` [Compound P-10] the IC50 [1] was 16 nM and the IC50 [2] was 132 nM.

Work on `Cc1nc2c(n1C1CC1)-c1nc(Nc3ccc(N4CCNCC4)cn3)ncc1C2` [Compound P-11] yielded an IC50 [1] of 43 nM and an IC50 [2] of 165 nM.

`CCN1CCN(c2ccc(Nc3ncc4c(n3)-c3c(cnn3C(C)C)CC4)nc2)CC1` [Compound P-12] was tested, and the IC50 [1] was 8 nM, the IC50 [2] was 36 nM and the IC50 [3] was > 10000 nM.

`Cc1nc2c(n1C1CCCC1)-c1nc(Nc3ccc(N4CCNCC4)cn3)ncc1C2` [Compound P-13] gave an IC50 [1] of 23 nM, an IC50 [2] of 43 nM and an IC50 [3] of 5650 nM. It also gave an IC50 [4] of 8320 nM.

Work on `CC(C)c1c2c(nn1C)CCc1cnc(Nc3ccc(N4CCNCC4)cn3)nc1-2` [Compound P-14, 9-isopropyl-8-methyl-N-(5-(piperazin-1-yl)pyridin-2-yl)-6,8-dihydro-5H-pyrazolo[3,4-H]quinazolin-2-amine] yielded an IC50 [1] of 5 nM, an IC50 [2] of 20 nM and an IC50 [3] of 1020 nM. The IC50 [4] was 523 nM.

`CCc1nc2c(n1CC)-c1nc(Nc3ccc(N4CCNCC4)cn3)ncc1C2` [Compound P-21] showed an IC50 [1] of 35 nM, an IC50 [2] of 706 nM and an IC50 [3] of 6370 nM. For the same compound, the IC50 [4] was 5050 nM.

Compound `CCc1nc2c(n1C(C)C)-c1nc(Nc3ccc(N4CCNCC4)cn3)ncc1C2` [Compound P-22] has an IC50 [1] of 20 nM and an IC50 [2] of 43 nM.

For `CCc1nc2c(n1C(C)C)-c1nc(Nc3ccc(N4CCNCC4)cn3)ncc1CC2` [Compound P-23, 2-ethyl-1-isopropyl-N-(5-(piperazin-1-yl)pyridin-2-yl)-4,5-dihydro-1H-imidazo[4,5-H]quinazolin-8-amine], the IC50 [1] was 6 nM, the IC50 [2] was 85 nM and the IC50 [3] was 2780 nM. It also gave an IC50 [4] of 1300 nM.

Work on `Cc1nc2c(n1C(C)C)-c1nc(Nc3ccc(N4CCNCC4)cn3)ncc1CC2` [Compound P-24, 1-isopropyl-2-methyl-N-(5-(piperazin-1-yl)pyridin-2-yl)-4,5-dihydro-1H-imidazo[4,5-H]quinazolin-8-amine] yielded an IC50 [1] of 3 nM, an IC50 [2] of 11 nM and an IC50 [3] of 3570 nM. It also gave an IC50 [4] of 816 nM.

With `CC(C)n1ncc2c1-c1nc(Nc3ccc(N4CCNCC4)cn3)ncc1CC2` [Compound P-25, 1-isopropyl-N-(5-(piperazin-1-yl)pyridin-2-yl)-4,5-dihydro-1H-pyrazolo[4,3H]quinazolin-8-amine] the IC50 [1] was 9 nM, the IC50 [2] was 31 nM and the IC50 [3] was > 10000 nM.

`CC(C)c1c2c(nn1C(F)F)Cc1cnc(Nc3ccc(N4CCNCC4)cn3)nc1-2` [Compound P-27] showed an IC50 [1] of 6 nM and an IC50 [2] of 8 nM.

For `Cc1nc2c(n1CC1CC1)-c1nc(Nc3ccc(N4CCNCC4)cn3)ncc1C2` [Compound P-28], the IC50 [1] was 41 nM and the IC50 [2] was 121 nM.

With `CC(C)c1[nH]nc2c1-c1nc(Nc3ccc(N4CCNCC4)cn3)ncc1CC2` [Compound P-29, 9-isopropyl-N-(5-(piperazin-1-yl)pyridin-2-yl)-6,8-dihydro-5H-pyrazolo[3,4-H]quinazolin-2-amine] the IC50 [1] was 7 nM, the IC50 [2] was 17 nM and the IC50 [3] was > 1000 nM. The IC50 [4] was 457 nM.

In the case of `CC(C)c1c2c(nn1C)COc1cnc(Nc3ccc(N4CCNCC4)cn3)nc1-2` [Compound P-30], the IC50 [1] is reported as 9 nM, the IC50 [2] is reported as 34 nM and the IC50 [3] is reported as 855 nM. It also gave an IC50 [4] of 761 nM.

`CCc1nc2c(n1C1CCCC1)-c1nc(Nc3ccc(N4CCNCC4)cn3)ncc1C2` [Compound P-34] was tested, and the IC50 [1] was 23 nM, the IC50 [2] was 394 nM and the IC50 [3] was 651 nM. The IC50 [4] was 1720 nM.

`c1cc(Nc2ncc3c(n2)-c2c(cnn2C2CCCCC2)CC3)ncc1N1CCNCC1` [Compound P-35] was tested, and the IC50 [1] was 74 nM and the IC50 [2] was 252 nM.

Compound `c1cc(Nc2ncc3c(n2)-c2nn(C4CCCC4)cc2CC3)ncc1N1CCNCC1` [Compound P-36] has an IC50 [1] of 138 nM and an IC50 [2] of 714 nM.

Work on `c1cc(Nc2ncc3c(n2)-c2c(cnn2C2CCOC2)CC3)ncc1N1CCNCC1` (centres unmarked) [Compound P-37] yielded an IC50 [1] of 41 nM and an IC50 [2] of 362 nM.

For `c1cc(Nc2ncc3c(n2)-c2c(nc(C4CC4)n2C2CCCC2)C3)ncc1N1CCNCC1` [Compound P-39], the IC50 [1] was 33 nM, the IC50 [2] was 184 nM and the IC50 [3] was 1040 nM. For the same compound, the IC50 [4] was 2330 nM.

`CCN1CCN(Cc2ccc(Nc3ncc4c(n3)-c3c(nc(C)n3C(C)C)CC4)nc2)CC1` [Compound P-41] showed an IC50 [1] of 5 nM and an IC50 [2] of 44 nM.

For `CC(C)c1c2c(nn1C)C(C)(C)c1cnc(Nc3ccc(N4CCNCC4)cn3)nc1-2` [Compound P-42], the IC50 [1] was 17 nM, the IC50 [2] was 222 nM and the IC50 [3] was 4320 nM. It also gave an IC50 [4] of 1290 nM.

Compound `Cc1nn(C2CCCC2)c2c1CCc1cnc(Nc3ccc(N4CCNCC4)cn3)nc1-2` [Compound P-43] has an IC50 [1] of 9 nM and an IC50 [2] of 46 nM.

Work on `CC(C)c1c2c(nn1C)CC(C)(C)c1cnc(Nc3ccc(N4CCNCC4)cn3)nc1-2` [Compound P-44] yielded an IC50 [1] of 173 nM and an IC50 [2] of 415 nM.

For `CCN1CCN(Cc2ccc(Nc3ncc4c(n3)-c3c(nn(CC)c3C(C)C)C4)nc2)CC1` [Compound P-45], the IC50 [1] was 37 nM and the IC50 [2] was 451 nM.

`CCn1nc2c(c1C(C)C)-c1nc(Nc3ccc(N4CCNCC4)cn3)ncc1CC2(C)C` [Compound P-46] was tested, and the IC50 [1] was 8 nM, the IC50 [2] was 35 nM and the IC50 [3] was 818 nM. The IC50 [4] was 469 nM.

Compound `CC(C)c1c2c(nn1C)C(C)c1cnc(Nc3ccc(N4CCNCC4)cn3)nc1-2` (centres unmarked) [Compound P-47] has an IC50 [1] of 5 nM, an IC50 [2] of 46 nM and an IC50 [3] of 706 nM. For the same compound, the IC50 [4] was 510 nM.

`CCn1nc2c(c1C(C)C)-c1nc(Nc3ccc(N4CCNCC4)cn3)ncc1C(C)(C)C2` [Compound P-48] showed an IC50 [1] of 97 nM and an IC50 [2] of 897 nM.

`CCn1nc2c(c1C(C)C)-c1nc(Nc3ccc(N4CCNCC4)cn3)ncc1OC2` [Compound P-49] was tested, and the IC50 [1] was 7 nM and the IC50 [2] was 70 nM.

Compound `CCN1CCN(Cc2ccc(Nc3ncc4c(n3)-c3c(nn(CC)c3C(C)C)C(C)(C)C4)nc2)CC1` [Compound P-50] has an IC50 [1] of 6 nM and an IC50 [2] of 40 nM.

`CC(C)n1ncc2c1-c1nc(Nc3ccc(N4CCNCC4)cn3)ncc1CC2(C)C` [Compound P-51] was tested, and the IC50 [1] was 42 nM and the IC50 [2] was 117 nM.

For `CC(C)n1nc(C#N)c2c1-c1nc(Nc3ccc(N4CCNCC4)cn3)ncc1CC2` [Compound P-52, 1-isopropyl-8-(5-(piperazin-1-yl)pyridin-2-ylamino)-4,5-dihydro-1H-pyrazolo[4,3-H]quinazolin-3-carbonitrile], the IC50 [1] was 6 nM and the IC50 [2] was 33 nM.

For `CC(=O)C1(C)Cc2cnc(Nc3ccc(N4CCNCC4)cn3)nc2-c2c1nn(C)c2C(C)C` (centres unmarked) [Compound P-55], the IC50 [1] was 128 nM and the IC50 [2] was 523 nM.

`CC(C)c1c2c(nn1C)CC1(CC1)c1cnc(Nc3ccc(N4CCNCC4)cn3)nc1-2` [Compound P-56] showed an IC50 [1] of 103 nM and an IC50 [2] of 831 nM.

For `CC(C)c1c2c(nn1C)C(C)(C(C)O)Cc1cnc(Nc3ccc(N4CCNCC4)cn3)nc1-2` (centres unmarked) [Compound P-60, 1-(9-isopropyl-6,8-dimethyl-2-(5-(piperazin-1-yl)pyridin-2-ylamino)-6,8-dihydro-5H-pyrazolo[3,4-H]quinazolin-6-yl)ethanol], the IC50 [1] was 160 nM and the IC50 [2] was 762 nM.

`CC(=O)C1(C)Cc2cnc(Nc3ccc(N4CCNCC4)cn3)nc2-c2c1ncn2C(C)C` (centres unmarked) [Compound P-63] gave an IC50 [1] of 56 nM and an IC50 [2] of 160 nM.

In the case of `Cc1nc2sc3cnc(Nc4ccc(N5CCNCC5)cn4)nc3c2n1C(C)C` [Compound P-65], the IC50 [1] is reported as 1070 nM and the IC50 [2] is reported as > 3000 nM.
